# Values of other authors, collected in patent US5849263A, “Pharmaceutical compositions containing alkylaryl polyether alcohol polymer” (priority 1996, dated 1998).
# Conditions: in vivo
smiles,measurement,value
"CCCCCCCCCCCCCCCC(=O)OCC(COP(=O)([O-])OCC[N+](C)(C)C)OC(=O)CCCCCCCCCCCCCCC (stereo not shown) [DPPC, diphalmitoylphosphatidyl choine]",undesired features / side effects of formulation,mucus plugging of the airways and obstruction of ventilator circuits
